# According to patent publication US20020026053A1, “Novel 3-(substituted) -2- indolinones compounds and use thereof as inhibitors of protein kinase activity” (priority 1997, published 2002):
# Target: T1, EGFR (Homo sapiens, UniProt P00533)
# T1 construct: endogenous in cells; host or cells: A431 cells (lysate, captured with SUMO1 anti-EGFR antibody)
# Experiment: Biochemical EGFR Assay
# Design: concentration or dose not given beside the values
# Details: protocol P.167
# In short: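 Readout is ABTS absorbance at 410 nm after anti-phosphotyrosine and HRP-antibody detection of EGFR autophosphorylation. The kinase was immunocaptured from A431 lysate, exposed 30 min to test compound diluted 1:10 in TBS, then phosphorylated for 5 min with ATP/MnCl2 before an EDTA stop.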
# T1 sequence (P00533 25-1210): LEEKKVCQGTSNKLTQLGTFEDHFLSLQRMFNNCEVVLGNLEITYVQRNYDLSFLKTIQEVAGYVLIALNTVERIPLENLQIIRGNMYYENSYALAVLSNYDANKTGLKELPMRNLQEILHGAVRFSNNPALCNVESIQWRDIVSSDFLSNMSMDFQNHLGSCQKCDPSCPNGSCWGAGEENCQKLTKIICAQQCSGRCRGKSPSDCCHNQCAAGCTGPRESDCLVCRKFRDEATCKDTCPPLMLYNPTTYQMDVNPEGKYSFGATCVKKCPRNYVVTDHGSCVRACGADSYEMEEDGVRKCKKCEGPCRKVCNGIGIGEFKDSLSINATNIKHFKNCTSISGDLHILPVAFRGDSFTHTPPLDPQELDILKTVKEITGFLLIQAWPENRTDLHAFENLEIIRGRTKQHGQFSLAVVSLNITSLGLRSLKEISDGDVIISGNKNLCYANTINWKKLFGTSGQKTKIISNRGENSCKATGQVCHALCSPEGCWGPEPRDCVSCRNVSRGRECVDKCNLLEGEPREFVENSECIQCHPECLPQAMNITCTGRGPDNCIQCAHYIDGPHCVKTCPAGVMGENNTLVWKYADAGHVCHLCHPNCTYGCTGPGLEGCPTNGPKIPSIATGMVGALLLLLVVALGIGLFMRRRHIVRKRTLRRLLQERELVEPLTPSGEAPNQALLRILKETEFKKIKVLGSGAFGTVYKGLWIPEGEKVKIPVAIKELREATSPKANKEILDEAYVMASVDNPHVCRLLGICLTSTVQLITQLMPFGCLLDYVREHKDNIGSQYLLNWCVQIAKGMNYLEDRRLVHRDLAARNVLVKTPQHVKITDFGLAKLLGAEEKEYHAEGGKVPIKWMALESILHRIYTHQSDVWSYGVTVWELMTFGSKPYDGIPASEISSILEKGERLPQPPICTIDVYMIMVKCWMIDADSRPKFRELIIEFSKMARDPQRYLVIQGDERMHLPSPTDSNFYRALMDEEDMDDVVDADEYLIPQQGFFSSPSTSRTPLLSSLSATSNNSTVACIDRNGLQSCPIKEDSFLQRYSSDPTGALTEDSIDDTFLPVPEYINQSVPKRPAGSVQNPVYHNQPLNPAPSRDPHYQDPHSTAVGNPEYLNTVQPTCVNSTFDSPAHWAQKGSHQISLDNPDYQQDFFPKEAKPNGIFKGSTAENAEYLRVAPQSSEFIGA
row,Structure (SMILES),Biochem EGFR % Inhibition (P.167)
1,Cc1c(Br)cc(Br)c2c1C(=Cc1cc(O)cc(O)c1)C(=O)N2 [10738/H07],−13.4%
2,Cc1c(Br)cc(Br)c2c1C(=Cc1ccc(Cl)c(Cl)c1)C(=O)N2 [10738/H08],−12.1%
3,COc1ccccc1C=C1C(=O)Nc2c(Br)cc(Br)c(C)c21 [10738/H09],1.6%
4,Cc1c(Br)cc(Br)c2c1C(=Cc1ccc(C(C)C)cc1)C(=O)N2 [10738/H10],11.4%
5,CCCOc1ccc(C=C2C(=O)Nc3c(Br)cc(Br)c(C)c32)cc1 [10738/H11],−13.4%
6,COc1ccc(C=C2C(=O)Nc3c(Br)cc(Br)cc32)cc1C [10739/A02],0.0%
7,O=C1Nc2c(Br)cc(Br)cc2C1=Cc1cccc(OCc2ccccc2)c1 [10739/A03],5.1%
8,O=C1Nc2c(Br)cc(Br)cc2C1=Cc1ccc(OCc2ccccc2)cc1 [10739/A04],−6.3%
9,O=C1Nc2c(Br)cc(Br)cc2C1=CC1COc2ccccc2O1 (centres unmarked) [10739/A05],10.7%
10,O=C1Nc2c(Br)cc(Br)cc2C1=Cc1ccc(O)cc1Cl [10739/A06],−5.5%
11,O=C1Nc2c(Br)cc(Br)cc2C1=Cc1cc(O)c(O)c(O)c1 [10739/A07],65.6%
12,COc1ccc(Oc2cccc(C=C3C(=O)Nc4c(Br)cc(Br)cc43)c2)cc1 [10739/A08],6.2%
13,CN(C)CCCOc1ccc(C=C2C(=O)Nc3c(Br)cc(Br)cc32)cc1 [10739/A09],26.9%
14,O=C1Nc2c(Br)cc(Br)cc2C1=Cc1ccoc1 [10739/A10],20.7%
15,O=C1Nc2c(Br)cc(Br)cc2C1=Cc1ccc(CO)o1 [10739/A11],−8.7%
16,COc1ccc(C=C2C(=O)Nc3ccc(I)cc32)cc1C [10739/B02],18.1%
17,O=C1Nc2ccc(I)cc2C1=Cc1cccc(OCc2ccccc2)c1 [10739/B03],9.6%
18,O=C1Nc2ccc(I)cc2C1=Cc1ccc(OCc2ccccc2)cc1 [10739/B04],17.5%
19,O=C1Nc2ccc(I)cc2C1=CC1COc2ccccc2O1 (centres unmarked) [10739/B05],32.0%
20,O=C1Nc2ccc(I)cc2C1=Cc1ccc(O)cc1Cl [10739/B06],9.2%
21,O=C1Nc2ccc(I)cc2C1=Cc1cc(O)c(O)c(O)c1 [10739/B07],59.4%
22,COc1ccc(Oc2cccc(C=C3C(=O)Nc4ccc(I)cc43)c2)cc1 [10739/B08],19.8%
23,CN(C)CCCOc1ccc(C=C2C(=O)Nc3ccc(I)cc32)cc1 [10739/B09],11.9%
24,O=C1Nc2ccc(I)cc2C1=Cc1ccoc1 [10739/B10],−2.1%
25,O=C1Nc2ccc(I)cc2C1=Cc1ccc(CO)o1 [10739/B11],−4.2%
26,COc1ccc(C=C2C(=O)Nc3ccc(Br)c(C)c32)cc1C [10739/C02],−1.7%

row,Structure (SMILES),Biochem EGFR % Inhibition (P.167)
1,Cc1c(Br)ccc2c1C(=Cc1cccc(OCc3ccccc3)c1)C(=O)N2 [10739/C03],18.3%
2,Cc1c(Br)ccc2c1C(=Cc1ccc(OCc3ccccc3)cc1)C(=O)N2 [10739/C04],1.5%
3,Cc1c(Br)ccc2c1C(=CC1COc3ccccc3O1)C(=O)N2 (centres unmarked) [10739/C05],−1.7%
4,Cc1c(Br)ccc2c1C(=Cc1ccc(O)cc1Cl)C(=O)N2 [10739/C06],−17.0%
5,Cc1c(Br)ccc2c1C(=Cc1cc(O)c(O)c(O)c1)C(=O)N2 [10739/C07],34.7%
6,COc1ccc(Oc2cccc(C=C3C(=O)Nc4ccc(Br)c(C)c43)c2)cc1 [10739/C08],−1.7%
7,Cc1c(Br)ccc2c1C(=Cc1ccc(OCCCN(C)C)cc1)C(=O)N2 [10739/C09],−2.7%
8,Cc1c(Br)ccc2c1C(=Cc1ccoc1)C(=O)N2 [10739/C10],−7.0%
9,Cc1c(Br)ccc2c1C(=Cc1ccc(CO)o1)C(=O)N2 [10739/C11],−17.0%
10,CNS(=O)(=O)c1ccc2c(c1)C(=Cc1ccc(OC)c(C)c1)C(=O)N2 [10739/D02],2.6%
11,CNS(=O)(=O)c1ccc2c(c1)C(=Cc1cccc(OCc3ccccc3)c1)C(=O)N2 [10739/D03],24.7%
12,CNS(=O)(=O)c1ccc2c(c1)C(=Cc1ccc(OCc3ccccc3)cc1)C(=O)N2 [10739/D04],−6.4%
13,CNS(=O)(=O)c1ccc2c(c1)C(=CC1COc3ccccc3O1)C(=O)N2 (centres unmarked) [10739/D05],−10.6%
14,CNS(=O)(=O)c1ccc2c(c1)C(=Cc1ccc(O)cc1Cl)C(=O)N2 [10739/D06],−19.8%
15,CNS(=O)(=O)c1ccc2c(c1)C(=Cc1cc(O)c(O)c(O)c1)C(=O)N2 [10739/D07],21.1%
16,CNS(=O)(=O)c1ccc2c(c1)C(=Cc1cccc(Oc3ccc(OC)cc3)c1)C(=O)N2 [10739/D08],−16.8%
17,CNS(=O)(=O)c1ccc2c(c1)C(=Cc1ccc(OCCCN(C)C)cc1)C(=O)N2 [10739/D09],−15.1%
18,COc1ccc(C=C2C(=O)Nc3ccc(S(=O)(=O)Nc4ccc(C(F)(F)F)cc4)cc32)cc1C [10739/E02],−8.3%
19,O=C1Nc2ccc(S(=O)(=O)Nc3ccc(C(F)(F)F)cc3)cc2C1=Cc1cccc(OCc2ccccc2)c1 [10739/E03],4.9%
20,O=C1Nc2ccc(S(=O)(=O)Nc3ccc(C(F)(F)F)cc3)cc2C1=Cc1ccc(OCc2ccccc2)cc1 [10739/E04],−35.5%
21,O=C1Nc2ccc(S(=O)(=O)Nc3ccc(C(F)(F)F)cc3)cc2C1=CC1COc2ccccc2O1 (centres unmarked) [10739/E05],−11.3%
22,O=C1Nc2ccc(S(=O)(=O)Nc3ccc(C(F)(F)F)cc3)cc2C1=Cc1ccc(O)cc1Cl [10739/E06],33.5%
23,O=C1Nc2ccc(S(=O)(=O)Nc3ccc(C(F)(F)F)cc3)cc2C1=Cc1cc(O)c(O)c(O)c1 [10739/E07],79.6%
24,COc1ccc(Oc2cccc(C=C3C(=O)Nc4ccc(S(=O)(=O)Nc5ccc(C(F)(F)F)cc5)cc43)c2)cc1 [10739/E08],−17.4%
25,CN(C)CCCOc1ccc(C=C2C(=O)Nc3ccc(S(=O)(=O)Nc4ccc(C(F)(F)F)cc4)cc32)cc1 [10739/E09],15.2%
26,O=C1Nc2ccc(S(=O)(=O)Nc3ccc(C(F)(F)F)cc3)cc2C1=Cc1ccoc1 [10739/E10],17.5%

row,Structure (SMILES),Biochem EGFR % Inhibition (P.167)
1,O=C1Nc2ccc(S(=O)(=O)Nc3ccc(C(F)(F)F)cc3)cc2C1=Cc1ccc(CO)o1 [10739/E11],−23.4%
2,COc1ccc(C=C2C(=O)Nc3ccc(S(=O)(=O)N4CCOCC4)cc32)cc1C [10739/F02],−3.6%
3,O=C1Nc2ccc(S(=O)(=O)N3CCOCC3)cc2C1=Cc1cccc(OCc2ccccc2)c1 [10739/F03],−10.8%
4,O=C1Nc2ccc(S(=O)(=O)N3CCOCC3)cc2C1=Cc1ccc(OCc2ccccc2)cc1 [10739/F04],−7.0%
5,O=C1Nc2ccc(S(=O)(=O)N3CCOCC3)cc2C1=CC1COc2ccccc2O1 (centres unmarked) [10739/F05],−16.4%
6,O=C1Nc2ccc(S(=O)(=O)N3CCOCC3)cc2C1=Cc1ccc(O)cc1Cl [10739/F06],−15.3%
7,O=C1Nc2ccc(S(=O)(=O)N3CCOCC3)cc2C1=Cc1cc(O)c(O)c(O)c1 [10739/F07],62.4%
8,COc1ccc(Oc2cccc(C=C3C(=O)Nc4ccc(S(=O)(=O)N5CCOCC5)cc43)c2)cc1 [10739/F08],−19.1%
9,CN(C)CCCOc1ccc(C=C2C(=O)Nc3ccc(S(=O)(=O)N4CCOCC4)cc32)cc1 [10739/F09],−19.6%
10,O=C1Nc2ccc(S(=O)(=O)N3CCOCC3)cc2C1=Cc1ccoc1 [10739/F10],−16.8%
11,O=C1Nc2ccc(S(=O)(=O)N3CCOCC3)cc2C1=Cc1ccc(CO)o1 [10739/F11],−38.5%
12,COc1ccc(C=C2C(=O)Nc3ccc(CCCl)cc32)cc1C [10739/G02],−5.1%
13,O=C1Nc2ccc(CCCl)cc2C1=Cc1cccc(OCc2ccccc2)c1 [10739/G03],2.4%
14,O=C1Nc2ccc(CCCl)cc2C1=Cc1ccc(OCc2ccccc2)cc1 [10739/G04],−12.3%
15,O=C1Nc2ccc(CCCl)cc2C1=CC1COc2ccccc2O1 (centres unmarked) [10739/G05],−23.0%
16,O=C1Nc2ccc(CCCl)cc2C1=Cc1ccc(O)cc1Cl [10739/G06],−31.2%
17,O=C1Nc2ccc(CCCl)cc2C1=Cc1cc(O)c(O)c(O)c1 [10739/G07],10.0%
18,COc1ccc(Oc2cccc(C=C3C(=O)Nc4ccc(CCCl)cc43)c2)cc1 [10739/G08],−18.5%
19,CN(C)CCCOc1ccc(C=C2C(=O)Nc3ccc(CCCl)cc32)cc1 [10739/G09],−39.8%
20,O=C1Nc2ccc(CCCl)cc2C1=Cc1ccoc1 [10739/G10],−38.1%
21,O=C1Nc2ccc(CCCl)cc2C1=Cc1ccc(CO)o1 [10739/G11],−23.2%
22,COc1ccc(C=C2C(=O)Nc3c(Br)cc(Br)c(C)c32)cc1C [10739/H02],−12.3%
23,Cc1c(Br)cc(Br)c2c1C(=Cc1cccc(OCc3ccccc3)c1)C(=O)N2 [10739/H03],10.0%
24,Cc1c(Br)cc(Br)c2c1C(=Cc1ccc(OCc3ccccc3)cc1)C(=O)N2 [10739/H04],−21.9%
25,Cc1c(Br)cc(Br)c2c1C(=Cc1ccc(O)cc1Cl)C(=O)N2 [10739/H06],−22.1%
